Laboratory results as given in patent US8614064B2, “Methods of diagnosing atherosclerosis by measuring ApoCI” (The Johns Hopkins University, priority 2003, dated 2013).

How the values were obtained:
[1] = tested on: ceramide; experiment: Anti-ceramide antibody immunofluorescence microscopy in ASMC; type: cell-based, human; conditions: 24 h
Experimental: FIGS. 4A-4D depict the effect of ApoCI, ApoCI-enriched HDL, and ApoCI-poor HDL on the level of ceramide in ASMC. Confluent ASMC were incubated with ApoCI (2.5 μg/mL) with time (FIG. 4A, upper left) or with ApoCI-enriched HDL (1 μg apoA-I/mL medium) or ApoCI-poor HDL (5 μg apoA-I/mL medium) (FIG. 4B, upper right) for 30 minutes. FIG. 4C: The cells were incubated with ApoCI alone ([…]) for 5 minutes or preincubated with GW4869 (20 μmol/L) for 30 minutes. After addition of ApoCI (2.5 μg/mL), incubation was continued for 6 hours, 12 hours, and 24 hours. After incubation, cells were harvested and the levels of ceramide determined using the diacylglycerol kinase assay. The level of phosphate was measured and the data (mean±SD) were expressed as percentage of the total ceramide present in untreated cells (vehicle DMSO). *P<0.05. In a separate experiment (FIG. 4D, right), confluent cells were grown on cover slips and pretreated with serum-free medium for 30 minutes. The cells were then incubated with vehicle DMSO alone (control), ApoCI (2.5 μg/ML), or ApoCI (2.5 μg/mL) plus the N-SMase inhibitor GW4869 (20 μmol/L) for 24 hours. The cells were then washed, treated with a primary anticeramide antibody, washed with phosphate-buffered saline, and treated with a fluorescein isothiocyanate-conjugated anti-mouse IgG (FIG. 4C, lower panel).

[2] = tested on: cytochrome c; experiment: Immunofluorescence of cytochrome c in human cultured aortic smooth muscle cells; type: cell-based; conditions: 24 h
Experimental: FIGS. 5A-5C depict the effect of ApoCI, ApoCIII, ApoCI-enriched HDL, and GW4869 on cytochrome c release in ASMC. After treatment of confluent cells for 24 hours with ApoCI (2.5 μg/mL medium), ApoCIII (2.5 μg/mL medium), or ApoCI-enriched HDL (1 μg apoA-I/mL medium), the cells were lysed. The cell lysate was used as the source of cytochrome c, and the pellet was used as a source of caspase-3. The cell lysates were separated by SDS-polyacrylamide gel electrophoresis, blotted onto nitrocellulose, and cytochrome c detected using a polyclonal antibody against cytochrome c (FIG. 5A, top panel). The gels were then subjected to densitometric scanning (FIG. 5B, middle panel). In a separate experiment (FIG. 5C, right), confluent cells were grown on cover slips and pretreated with serum-free medium for 30 minutes. The cells were then incubated with control medium, ApoCI (2.5 μg/mL medium), TNF-α (20 ng/mL), or ApoCI (2.5 μg/mL)+GW4869 (20 μmol/L) for 24 hours. The cells were then washed, treated with a primary anti-cytochrome c antibody, washed with phosphate-buffered saline, and treated with a fluorescein isothiocyanate-conjugated anti-rabbit IgG (FIG. 5C, lower panel).
AOSMC (5×10^3) were grown on cover slips to confluence and pretreated with serum free medium for 30 min as described above. […]

[3] = tested on: human aortic smooth muscles cells (ASMC); experiment: DNA laddering assay; type: cell-based; conditions: ApoCI or ApoCIII 2.5 μg/mL, TNF-α positive control
Experimental: FIGS. 1A-1C depict the effect of apolipoproteins on apoptosis in human aortic smooth muscles cells (ASMC). ASMC were grown on sterilized glass cover slips and incubated for 24 hours with media alone (control), ApoCIII (negative control, 2.5 μg/mL medium), ApoCI (2.5 μg/mL medium), ApoCI-enriched HDL (1 μg apoA-I/mL medium), or ApoCI-poor HDL (5 μg apoA-I/mL medium) for 24 hours. Cells were then fixed with ethanol-acetic acid (3:1 volume/volume) and washed 3 times with phosphate-buffered saline. The cells were then stained with DAPI reagent, mounted on a glass cover slide, and subjected to fluorescence microscopy. FIG. 1A: The nucleus of normal cells stains blue and the nucleus of apoptotic cells stains is fragmented white. FIG. 1B: 300 to 500 cells in each sample were counted and the percent of apoptotic cells was plotted. Values are mean±SD; **P<0.01, ***P<0.001. FIG. 1C: DNA ladder assay. Confluent cultures of ASMC were incubated with control medium alone, ApoCI (2.5 μg/mL medium), ApoCIII (negative control, 2.5 μg/mL medium), and TNF-α (positive control, 20 ng/mL medium). Genomic DNA was extracted and 10 μg DNA was subjected to agarose gel electrophoresis. The gels were calibrated with commercially available DNA standards. After electrophoresis, the gels were stained with ethidium bromide and then photographed.
Cells were treated with either TNF-α (30 ng/ml), ApoCI or ApoCIII (2.5 μg/ml) for 6 h. The cells were then washed twice with minimal essential medium and harvested with buffer (10 mM HEPES, pH 7.4. 5 mM EDTA, 0.25 mM EGTA, 50 mM NaF, 5 mM β-mercaptoethanol, 0.35 M sucrose, 0.1% Nonidet and protease inhibitors, 1 mM phenylmethylsulfonyl fluoride, 2 μg/ml leupeptin and 5 μg/ml pepstatin), and pelleted. Genomic DNA was prepared employing standard protocol. Genomic DNA was subjected to electrophoresis, stained with ethidium bromide and the gel was photographed. The gel was calibrated using DNA fragments of known molecular weight.

Molecule | effect of GW4869 on ApoCI-induced ceramide immunofluorescence ([1]; ApoCI 2.5 μg/mL plus GW4869 20 μmol/L) | effect of GW4869 on ApoCI-induced cytochrome c release (immunofluorescence) ([2]; ApoCI 2.5 μg/mL + GW4869 20 μmol/L) | DNA laddering on agarose gel (FIG. 1C) [3] | anti-ceramide immunofluorescence of treated cells ([1]; ApoCI 2.5 μg/mL, compared with control cells) | release of cytochrome c from mitochondria into the cytoplasm (immunofluorescence) ([2]; ApoCI 2.5 μg/mL)
O=C(/C=C/c1ccc(/C=C/C(=O)Nc2ccc(C3=NCCN3)cc2)cc1)Nc1ccc(C2=NCCN2)cc1 [GW4869] | eliminated | inhibited |  |  | 
ApoCIII: purified human ApoCIII purchased from Academy Bio-Medical Company, used as negative control |  |  | did not exhibit significant DNA laddering |  | 
Apolipoprotein C-I (TPDVSSALDKLKEFGNTLEDKARELISRIKQSELSAKMREWFSETFQKVKEKLKIDS; UniProt P02654 27-83, looked up) [ApoCI, 6.6-kDa single-chain plasma protein of 57 amino acids; purified human ApoCI purchased from Academy Bio-Medical Company] |  |  | exhibited DNA laddering | reacted strongly | marked increase
